Source: EP0189941A2, “Antibiotic compositions” (Bristol-Myers Squibb Company, priority 1985, dated 1986)
Where two headings read alike, the source gives them in different places.

Legend:
[1] = dry state
physchem = settings: dry state, % Loss
[2] = Text: The most preferred pH range of the reconstituted solution is about 4 to about 5, because pain upon injection normally increases with […].
For this reason, it is not possible to give absolute gram amounts of cefbuperazone and lysine, arginine, lysine acetate and/or arginine acetate to produce a specific pH. The amount of each ingredient can readily be determined for individual batches of the two components by titration of the cefbuperazone with the other component.

Hygroscopicity = format: physicochemical; settings: in words
[3] = tested on: weanling female Sprague-Dawley rats; experiment: Rat paw-lick test for pain on injection; format: in vivo; settings: pH 5.3; 0.1 ml subplantar, 333 mg activity per ml; mean 0-3 minutes after injection ± Standard Error
Method: The test animals were weanling female Sprague-Dawley rats. The test solutions were injected into the subplantar tissue of the right or left hind paw, using a syringe with a 27 gauge, 1/2-inch needle. […] The paw-lick response, an indicator of the pain caused by the injection, was recorded for each rat for three minutes following the injection. A paw-licking episode is defined as a licking response followed by a turning of the head away from the paw or five seconds of uninterrupted licking.

[4] = pH of unit dosage forms reconstituted with Sterile Water for Injection; format: physicochemical; settings: diluted with Sterile Water for Injection, U.S.P. to 333 mg of cefbuperazone activity per ml
[5] = Stability in the dry state (% loss on storage at elevated temperature); settings: 100°C - 1 day, listed as Lyophilized anhydrous sodium cefbuperazone
[6] = Intravenous toxicity test (LD50); settings: mouse, in vivo, mice, dosing solution 333 mg of cefbuperazone activity per ml, parentheses = 95% confidence limits
Method: Intravenous toxicity tests were conducted in Swiss-Webster mice using the sodium salt of cefbuperazone and the compositions of the present invention. In each case, the dosing solution contained 333 mg of cefbuperazone activity per ml.

## CCN1CCN(C(=O)NC(C(=O)NC2(OC)C(=O)N3C(C(=O)O)=C(CSc4nnnn4C)CSC32)C(C)O)C(=O)C1=O (stereo not shown) [Anhydrous cefbuperazone free acid]
[1]; 72 h
  % Loss: 7.8%
[1]; 168 h
  % Loss: 4.1%
[1]; 672 h
  % Loss: 3.4%

## CCN1CCN(C(=O)NC(C(=O)NC2(OC)C(=O)N3C(C(=O)O)=C(CSc4nnnn4C)CSC32)C(C)O)C(=O)C1=O (stereo not shown) [Cefbuperazone free acid dihydrate]
physchem
  degraded at 168 h: 3.7%
  degraded at 840 h: 0%
  degraded at 1008 h: 1.8%
[2]
  water solubility: insufficiently water-soluble
[2]; 264.4 mg suspended in 10 ml of water, titrated with aqueous L(+) lysine
  pH at which solution of the cefbuperazone takes place: ~3.5
[1]; 24 h
  % Loss: + 4.5%
[1]; 48 h
  % Loss: + 3.3%
[1]; 336 h
  % Loss: + 4.6%
[1]; 1344 h
  % Loss: + 2.2%

## CCN1CCN(C(=O)NC(C(=O)NC2(OC)C(=O)N3C(C(=O)O)=C(CSc4nnnn4C)CSC32)C(C)O)C(=O)C1=O (stereo not shown) [Cefbuperazone free acid hemiacetonate]
Hygroscopicity
  hygroscopicity: non- hygroscopic
[1]; 48 h
  % Loss: 0%
[1]; 336 h
  % Loss: 0%

## CCN1CCN(C(=O)NC(C(=O)NC2(OC)C(=O)N3C(C(=O)O)=C(CSc4nnnn4C)CSC32)C(C)O)C(=O)C1=O (stereo not shown) [sodium cefbuperazone]
[3]
  Paw-Lick Response: 5.20 ± 1.31 (10)
[4]
  pH of Solution: 5.3
[5]
  % Loss: melts/decomposes
[1]; 72 h
  % Loss: 37.2%
[1]; 336 h
  % Loss: 38.0%
[1]; 1344 h
  % Loss: 35.0%
[6]
  LD50: > 5000 mg/kg
